Earlier results as cited in patent publication US20060223182A1, “Device for producing autologous VEGF” (priority 2005, published 2006).
Where two headings read alike, the source gives them in different places.

Key:
human keratinocytes [1] = settings: human keratinocytes cultured in H2O2, with cycloheximide
human keratinocytes [2] = settings: baseline about 200 pg/ml
human macrophages = settings: 0.5 mM H2O2 for about 30 minutes

C[C@@H]1C[C@@H]([C@H](O)CC2CC(=O)NC(=O)C2)C(=O)[C@@H](C)C1 [cycloheximide]
level of mRNA produced by the superinduction relative to mere addition of H2O2 (human keratinocytes [1]): at least 10 fold

OO [H2O2, hydrogen peroxide]
VEGF production level (human keratinocytes [2]; H2O2 250 uM): about 600 pg/ml
VEGF produced per cell (human macrophages): about 2.5 fg VEGF/cell

TGF-β: growth factor, obtainable from platelet releasate
increase in steady state levels of VEGF mRNA (VSMCs; 0.3 ng/ml TGF-β, 4 hours, 21% O2, printed as 'similar increase' to 2.5% O2 alone): 1.5-2 fold
increase in the level of VEGF mRNA (VSMCs; combined treatment of TGF-β and incubation at 2.5% O2): ~7 fold

TNF-α
VEGF production level (human keratinocytes [2]; TNF-α 25 ng/ml): about 600 pg/ml
